In patent US10011598B2, “Small molecules targeting repeat r(CGG) sequences” (THE SCRIPPS RESEARCH INSTITUTE, priority 2012, dated 2018):
Entries after “also recorded” stand apart in the source; their conditions may differ. Read-outs that look alike come from different tables or passages of the source.

Legend:
[1] = tested on: cTNT alternative splicing; assay: cTNT mini-gene control splicing in COS7 cells; type: cell-based; conditions: for effect on cTNT splicing: no concentration stated, not regulated by Sam68
Text: (§1) Control experiments were also completed to determine the specificity of 1a; that is if it affects the splicing of RNAs not controlled by Sam68. In these experiments, a PLEKHH2 (15) or cardiac troponin T (cTNT) (32) mini-gene was used, as their alternative splicing is not regulated by Sam68. […] Thus, the effect of 1a on pre-mRNA splicing appears to be specific to the splicing of pre-mRNAs regulated by Sam68.

[2] = tested on: SMN2 exon 7 alternative splicing; assay: SMN2 mini-gene splicing in COS7 cells (FXTAS model), RT-PCR; type: cell-based; conditions: for SMN2 pre-mRNA splicing defects, in words: figure legends
Text: Encouraged by our TR-FRET assay results, we tested the bioactivity of the optimal dimeric small molecule, 2E-5NMe, by using a FXTAS cellular model. In the FXTAS cell model, r(CGG)^exp binds and sequesters Sam68, a pre-mRNA splicing regulator. Sequestration of Sam68 causes its inactivation and dysregulation of alternative pre-mRNA splicing. In particular, the alternative splicing of exon 7 of the survival motor neuron-2 pre-mRNA (SMN2; involved in maintenance of motor neurons and mRNA processing) is dysregulated. Exon 7 is included too frequently when r(CGG)^exp is expressed, ˜70% of time as compared to normal cells in which exon 7 has an inclusion rate of only ˜40% (FIG. 14). Experiments were completed as previously described. Briefly. COS7 cells were co-transfected with plasmids expressing an SMN2 alternative splicing reporter and r(CGG)60. The transfection cocktail was removed, and the cells were incubated with fresh medium containing serially diluted concentrations of compound for 24 h. Total RNA was harvested, and splicing patterns were analyzed via RT-PCR. Remarkably, at […] concentration, 2E-5NMe restores alternative pre-mRNA splicing patterns back to the wild type. The monomer 1a required 10 times higher concentration for the same effect.
(§2) In order to determine if a improves FXTAS-associated splicing defects in vivo, a cell culture model system was used. Briefly. COS7 cells were grown as monolayers in 24- or 96-well plates in growth medium (1×DMEM, 10% FBS, and 1× GlutaMax (Invitrogen)). After the cells reached 90-95% confluency, they were transfected using Lipofectamine 2000 reagent (Invitrogen) or PugenHD (Roche) per the manufacturer's standard protocol. Equal amounts of a plasmid expressing a 60 CGG repeats and a mini-gene of interest (SMN2 or Bcl-x) were used. Approximately 5 h post-transfection, the transfection cocktail was removed and replaced with growth medium containing 1a. After 16-24 h, the cells were lysed in the plate, and total RNA was harvested with a Qiagen RNAEasy kit or a GenElute kit (Sigma). An on-column DNA digestion was completed per the manufacturer's recommended protocol.
(§3) A sample of RNA was subjected to reverse transcription-polymerase chain reaction (RT-PCR) using 5 units of AMV Reverse Transcriptase from Life Sciences or Superscript II (Invitrogen). Approximately 300 ng were reverse transcribed, and 150 ng were subjected to PCR. RT-PCR products were observed after 25-30 cycles of: 95° C. for 1 min: 55° C. for 1 min; 72° C. for 2 min and a final extension at 72° C. for 10 min. The products were separated by polyacrylamide or agarose gel electrophoresis, stained, and imaged using a Typhoon phosphorimager. The splicing isoforms were quantified using QuantityOne software (BioRad). Table S-2 lists the RT-PCR primers used for each mini-gene construct.

[3] = tested on: r(CGG)12-DGCR8Δ complex; assay: TR-FRET protein displacement assay; type: biochemical; conditions: for inhibition of the r(CGG)12-DGCR8Δ interaction, in words: comparison within the tested compounds; for Percentage displacement at 25 μM: 25 μM compound, DGCR8Δ displaced from r(CGG)12
[4] = tested on: PLEKHH2 alternative splicing; assay: PLEKHH2 mini-gene control splicing in COS7 cells; type: cell-based; conditions: for effect on PLEKHH2 splicing: no concentration stated, not regulated by Sam68
Text: as §1

[5] = molecular target: RNA containing one 5′CGG/3′GGC motif; assay: RNA-binding assay via Hoechst 33258 dye displacement; conditions: RNA with one 5′CGG/3′GGC motif; Table 1
Protocol: Dissociation constants were determined using an in-solution, fluorescence-based assay (37-45). RNA was annealed in DNA buffer (8 mM Na2HPO4, pH7.0, 185 mM NaCl, 0.1 mM EDTA, 40 μg/mL BSA) at 60° C. for 5 min and allowed to slowly cool to room temperature. The annealed RNA was then titrated into DNA buffer containing 1000 nM Hoechst 33258. Fluorescence signal was recorded using a Bio-Tek FLX-800 plate reader, which was equipped with excitation filter at 360/40 nm and emission filter at 460/40 nm. The change in fluorescence intensity as a function of RNA concentration was fit to the following equation (eq. 3): (37, 46) I=I0+0.5Δϵ{([Ht0]+[RNA]0+Kt)−(([Ht]0+[RNA]0+Kt)^2−4[Ht]0[RNA]0)^0.5} (eq. 3) where I is the observed fluorescence intensity, I0 is the fluorescence intensity in the absence of RNA, Δϵ is the difference between the fluorescence intensity in the absence of RNA and in the presence of infinite RNA concentration and is in units of M^−1. […]
Ligands 1a-1d were then added to compete for binding to the RNA (1 μM) in presence of Hoechst 33258 (1 μM). Reduction in fluorescence of Hoechst 33258 was measured using a Bio-Tek FLX-800 plate reader as a function of ligand concentration (1a-1d) and was fit to the following equation (eq. 4): (41) […]

[6] = tested on: r(CGG)^exp nuclear foci; assay: Nuclear foci by fluorescence in situ hybridization (FISH) in COS7 cells; type: cell-based; conditions: COS7 cells transfected with r(CGG)60 and GFP
Protocol: FISH experiments were completed as previously described. (8) Briefly, COS7 cells were plated onto glass coverslips and co-transfected with plasmids encoding for r(CGG)60 and GFP. The cells were fixed in 4% paraformaldehyde in PBS (pH 7.4) for 15 min and washed three times with PBS. Then, they were permeabilized with 0.5% Triton X-100 in PBS. Prior to addition of the FISH probe, the cells were pre-hybridized in a 2×SSC buffer containing 40% formamide and 10 mg/mL BSA for 30 min. The coverslips were hybridized for 2 h in 2×SSC buffer supplemented with 40% formamide, 2 mM vanadyl ribonucleoside, 60 μg/mL tRNA, 30 μg/mL BSA, and 0.75 μg (CCG)8-Cy3 DNA oligonucleotide probe. The cells were washed twice in 2×SSC containing 50% formamide and then twice in 2×SSC. Following FISH the coverslips were incubated for 10 min in 2×SSC containing 1 μg/mL DAPI and rinsed twice in 2×SSC. The coverslips were then mounted in Pro-Long media and examined using either a simple fluorescence microscope (Leica) or a Leica DM4000 B confocal microscope.

[7] = tested on: fully paired RNAs; assay: Competition dialysis; type: binding; conditions: 0.7 μM ligand, 2 μM RNA
Protocol: (§4) Competition dialysis was completed as previously described (31). Briefly, 2 μM RNA or protein was transferred into Slide-a-Lyzer MINI dialysis units with a molecular weight cut-off of 2,000 (Thermo Scientific), and the units were placed into a solution of 0.7 μM ligand. Two blank units containing only buffer were used to monitor equilibration by checking the absorbance at the peak wavelength. After the blank units reached equilibrium, sodium dodecyl sulfate (SDS) was added to a final concentration of 1%, and the absorbance was measured. This absorbance was used to determine total ligand concentration (Ct). The concentration of the dialysate (free ligand concentration. Cf) was determined analogously. The bound ligand concentration (Cb) was then determined using equation 2: Cb=Ct−Cf (eq. 2) where Cb, Ct, and Cf are concentrations of bound, total, and free ligand, respectively. RNA-Binding Assays Via Dye Displacement.

[8] = tested on: DGCR8Δ; assay: Competition dialysis; type: binding; conditions: 0.7 μM ligand, 2 μM protein
Protocol: as §4

[9] = tested on: r(CGG)12; assay: Competition dialysis; type: binding; conditions: 0.7 μM ligand, 2 μM RNA
Protocol: as §4

[10] = tested on: Bcl-x exon 2 alternative splicing; assay: Bcl-x mini-gene splicing in COS7 cells (FXTAS model), RT-PCR; type: cell-based; conditions: for Bcl-x splicing: COS7 cells expressing r(CGG)60
Protocol: as §2, §3

[11] = 62 times of competitor tRNA, Table 2, read-out: IC50 at the presence of 62 times of competitor, tRNA
[12] = inhibition of r(CGG)12-DGCR8Δ complex, Table 2, read-out: IC50
[13] = disruption of r(CGG)12-DGCR8Δ complex, Table 1, read-out: IC50
[14] = read-out: IC50 for disruption of r(CGG)12-DGCR8Δ complex / inhibition of protein binding
[15] = 500 μM, splicing not regulated by Sam68
[16] = cells that do not express r(CGG)60

Row | SMILES | effect on cTNT splicing [1] | SMN2 pre-mRNA splicing defects, in words ([2]; COS7 cells expressing r(CGG)60) | r(CGG)12-DGCR8Δ complex formation, % ([3]; 1 μM compound, Table 2) [%] | r(CGG)12-DGCR8Δ complex formation, % ([3]; 10 μM compound, Table 2) [%] | IC50 [3, 11] [µM] | inhibition of the r(CGG)12-DGCR8Δ interaction, in words [3] | IC50 [3, 12] [µM] | effect on PLEKHH2 splicing [4] | Percentage displacement at 25 μM ([3]; Table 1) [%] | IC50 [3, 13] [µM] | IC50 [3, 14] [µM] | Kd [5] [µM] | also measured
1 | Cc1c2cc[n+](Cc3cn(CCCNCC(=O)N(C)C(C)C(=O)N(C)C(C)C(=O)N(C)C(C)C(=O)N(C)C(C)C(=O)N(C)C(C)C(=O)N(CCCn4cc(C[n+]5ccc6c(C)c7[nH]c8ccc(O)cc8c7c(C)c6c5)nn4)CC(N)=O)nn3)cc2c(C)c2c1[nH]c1ccc(O)cc12 (stereo not shown) [2E-5NMe] | does not affect | reduction of pro-mRNA splicing defects | 39.6 ± 0.6 | 5.0 ± 2.6 | 3.52 | the most potent compound | 0.47 ± 0.08 | does not affect | – | – | – | – | concentration that restores alternative pre-mRNA splicing patterns back to the wild type ([2]; SMN2, COS7 cells with r(CGG)60, 24 h): 50 mM; effect on alternative splicing in healthy cells ([2]; cells without r(CGG)60): does not affect; potency relative to the monomer 1a ([3]; IC50 ratio): ~8 fold; r(CGG)12-DGCR8D complex inhibited ([3]; at 1 mM (so in the source)): 60%; r(CGG)12-DGCR8D complex inhibited ([3]; at 10 mM (so in the source)): 95%
2 | Cc1c2ccncc2c(C)c2c1[nH]c1ccc(O)cc12 [1e, 9-hydroxyellipticine] | – | – | – | – | – | markedly decreased | – | – | 46 ± 5 | ~25 | ~25 | – | –
3 | Cc1c2cc[n+](C)cc2c(C)c2c1[nH]c1ccc(O)cc12 [1d, elliptinium] | – | – | – | – | – | – | – | – | 87 ± 5 | 7 ± 0.2 | – | 0.05 ± 0.018 | –
4 | Cc1c2cc[n+](CCN3CCCCC3)cc2c(C)c2c1[nH]c1ccc(O)cc12 [1a, 9-hydroxy-5,11-dimethyl-2-(2-(piperidin-1-yl)ethyl)-6H-pyrido[4,3-b]carbazol-2-ium] | not to effect splicing; also recorded: non-effect | improves SMN2 pre-mRNA splicing defects | 66.9 ± 0.7 | 20.4 ± 0.8 | 20.1 | – | 3.84 ± 0.3 | not to effect splicing; also recorded: non-effect | 85 ± 1 | 13 ± 0.4 | 12 | 0.076 ± 0.004 | effect on cTNT alternative splicing [1, 15]: did not affect; size and number of r(CGG)^exp nuclear foci / aggregates [6]: reduces the size and the number of foci; also recorded: reduced formation of r(CGG)^exp aggregation; also recorded: decreases r(CGG)^exp-protein aggregates; SMN2 pre-mRNA splicing level ([2]; 100 μM, COS7 cells expressing r(CGG)60): approximately 70 % of wild type; SMN2 pre-mRNA splicing ([2]; 500 μM, COS7 cells expressing r(CGG)60): restores pre-mRNA splicing to levels wild type; concentration at which improvement of SMN2 splicing defects can be observed ([2]; COS7 cells expressing r(CGG)60): 20 µM; concentration required for the same effect relative to 2E-5NMe ([2]; SMN2 splicing restored to wild type): 10 times; effect on SMN2 splicing [2, 16]: No statistically significant effect; amount of ligand partitioned into fully paired RNAs relative to r(CGG)12 [7]: less than half; binding to DGCR8Δ [8]: very little binding; binding to r(CGG)12 [9]: binds tightly; Bcl-x splicing ([10]; 100 μM): Statistically significant improvement; Bcl-x splicing ([10]; 500 μM): restoration of wild type splicing patterns; Bcl-x pre-mRNA splicing defects, in words ([10]; COS7 cells expressing 60 r(CGG) repeats): improves Bcl-x pre-mRNA splicing defects; effect on Bcl-x splicing [10, 16]: No statistically significant effect; effect on PLEKHH2 alternative splicing [4, 15]: did not affect
